In patent US8268862B2, “Sirtuin modulating compounds” (Sirtris Pharmaceuticals, Inc., priority 2007, dated 2012):

Target: T1, SIRT1 (Homo sapiens, UniProt Q96EB6)
T1 sequence (Q96EB6 1-747): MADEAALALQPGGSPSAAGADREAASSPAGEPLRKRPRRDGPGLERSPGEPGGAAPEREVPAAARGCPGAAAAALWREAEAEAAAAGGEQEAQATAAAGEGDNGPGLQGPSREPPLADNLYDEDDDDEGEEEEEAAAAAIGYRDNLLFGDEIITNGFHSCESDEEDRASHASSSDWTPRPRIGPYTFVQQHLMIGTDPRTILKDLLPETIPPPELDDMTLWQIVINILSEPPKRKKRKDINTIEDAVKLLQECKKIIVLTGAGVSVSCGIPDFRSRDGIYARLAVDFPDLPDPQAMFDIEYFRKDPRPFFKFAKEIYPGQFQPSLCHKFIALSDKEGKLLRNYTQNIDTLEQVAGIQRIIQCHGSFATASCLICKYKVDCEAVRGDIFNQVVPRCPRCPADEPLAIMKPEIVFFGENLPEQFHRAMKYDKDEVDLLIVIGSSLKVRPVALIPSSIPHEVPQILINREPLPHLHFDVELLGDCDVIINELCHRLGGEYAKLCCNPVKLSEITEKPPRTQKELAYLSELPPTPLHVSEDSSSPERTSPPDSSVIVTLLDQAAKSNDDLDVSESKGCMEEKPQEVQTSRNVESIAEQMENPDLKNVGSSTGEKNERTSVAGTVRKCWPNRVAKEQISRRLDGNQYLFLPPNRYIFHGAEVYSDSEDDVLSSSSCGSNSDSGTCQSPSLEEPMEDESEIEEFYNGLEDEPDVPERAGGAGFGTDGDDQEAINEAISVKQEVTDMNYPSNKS
Assay: mass spectrometry based SIRT1 deacetylation assay (activation)
Type: biochemical
Conditions: 0.5 μM peptide substrate, 120 μM βNAD+, 10 nM SIRT1, 25 min at 25° C.; for EC1.5 (concentration of test compound that results in 150% activation of SIRT1): NA = not active in the assay; for Emax: read-out: % FOLD ACT. (percent maximum fold activation of SIRT1)
Source text: A mass spectrometry based assay was used to identify modulators of SIRT1 activity. The mass spectrometry based assay utilizes a peptide having 20 amino acid residues as follows: Ac-EE-K(biotin)-GQSTSSHSK(Ac)NleSTEG-K(5TMR)-EE-NH2 (SEQ ID NO: 1) wherein K(Ac) is an acetylated lysine residue and Nle is a norleucine. The peptide is labeled with the fluorophore 5TMR (excitation 540 nm/emission 580 nm) at the C-terminus. The sequence of the peptide substrate is based on p53 with several modifications. In addition, the methionine residue naturally present in the sequence was replaced with the norleucine because the methionine may be susceptible to oxidation during synthesis and purification.
Test compounds may be added to the reaction as described above. […] After the 25 minute incubation with SIRT1, 10 μL of 10% formic acid is added to stop the reaction. Reactions are sealed and frozen for later mass spec analysis. Determination of the mass of the substrate peptide allows for precise determination of the degree of acetylation (i.e. starting material) as compared to deacetylated peptide (product).
A control for inhibition of sirtuin activity is conducted by adding 1 μL of 500 mM nicotinamide as a negative control at the start of the reaction (e.g., permits determination of maximum sirtuin inhibition). A control for activation of sirtuin activity is conducted using 10 nM of sirtuin protein, with 1 μL of DMSO in place of compound, to determine the amount of deacetylation of the substrate at a given timepoint within the linear range of the assay. This timepoint is the same as that used for test compounds and, within the linear range, the endpoint represents a change in velocity.
For the above assay, SIRT1 protein was expressed and purified as follows. […] The protein was expressed by induction with 1 mM IPTG as an N-terminal His-tag fusion protein at 18° C. overnight and harvested at 30,000×g. Cells were lysed with lysozyme in lysis buffer (50 mM Tris-HCl, 2 mM Tris[2-carboxyethyl]phosphine (TCEP), 10 μM ZnCl2, 200 mM NaCl) and further treated with sonication for 10 min for complete lysis. The protein was purified over a Ni-NTA column (Amersham) and fractions containing pure protein were pooled, concentrated and run over a sizing column (Sephadex S200 26/60 global). The peak containing soluble protein was collected and run on an Ion-exchange column (MonoQ). Gradient elution (200 mM-500 mM NaCl) yielded pure protein. This protein was concentrated and dialyzed against dialysis buffer (20 mM Tris-HCl, 2 mM TCEP) overnight. The protein was aliquoted and frozen at −80° C. until further use.
Sirtuin modulating compounds that activated SIRT1 were identified using the assay described above and are shown below in Table 3. The EC1.5 values represent the concentration of test compounds that result in 150% activation of SIRT1. NT means that the compound was not tested using the indicated assay. NA means that the compound was not active in the indicated assay.

EC1.5 (concentration of test compound that results in 150% activation of SIRT1) [NM] | Emax [%] | SMILES
357 | 411 | O=C(Nc1ccccc1-c1nc2cc(CN3CCOCC3)cnc2s1)c1cccc(-c2ccccc2F)n1 [Compound 52]
141 | 364 | COCCN1CCN(Cc2cnc3sc(-c4ccccc4NC(=O)c4ccn(-c5ccccc5)n4)nc3c2)CC1 [Compound 155]
1060 | 314 | O=C(Nc1ccccc1-c1nc2cc(CN3CCNCC3)cnc2s1)c1cn2cc(F)ccc2n1 [Compound 124]
235 | 239 | Cc1c(C(=O)Nc2ccccc2-c2nc3cc(CN4CCNCC4)cnc3s2)oc2ccccc12 [Compound 89]
200 | 221 | O=C(Nc1ccccc1-c1nc2cc(CN3CC[C@@H](O)C3)cnc2s1)c1ccc2ccccc2n1 [Compound 104]
– | 100 | Cc1nc(-c2cccnc2)sc1C(=O)Nc1ccccc1-c1nc2cc(CN3CCOCC3)cnc2s1 [Compound 80]
2121 | 372 | COCCN1CCN(Cc2cnc3sc(-c4ccccc4NC(=O)c4cccc(-c5ccccc5C#N)n4)nc3c2)CC1 [Compound 143]
– | 100 | O=C(Nc1ccccc1-c1nc2cc(CN3CCCC(F)(F)C3)cnc2s1)c1ccc2ccccc2n1 [Compound 118]
656 | 212 | COCCN1CCN(Cc2cnc3sc(-c4ccccc4NC(=O)c4cccc(-c5ncccn5)c4)nc3c2)CC1 [Compound 42]
3920 | 204 | O=C(Nc1ccccc1-c1nc2cc(CN3CCOCC3)cnc2s1)c1cccc(-c2nnn[nH]2)c1 [Compound 77]
127 | 487 | COCCN1CCN(Cc2cnc3sc(-c4ccccc4NC(=O)c4cccc(-c5ccc(F)cc5)n4)nc3c2)CC1 [Compound 141]
230 | 307 | O=C(Nc1ccccc1-c1nc2cc(CN3CC[C@H](O)C3)cnc2s1)c1ccc2ccccc2n1 [Compound 110]
260 | > 500 | O=C(Nc1ccccc1-c1nc2cc(CN3CCNCC3)cnc2s1)c1ccc2ccccc2n1 [Compound 64]
14 | 272 | COCCN1CCN(Cc2cnc3sc(-c4ccccc4NC(=O)c4cc(-c5ccccc5)cn4C)nc3c2)CC1 [Compound 88]
94 | 299 | C[C@@H]1CN(Cc2cnc3sc(-c4ccccc4NC(=O)c4cccc(-c5ccccc5)c4)nc3c2)C[C@H](C)N1 [Compound 24]
480 | 324 | O=C(Nc1ccccc1-c1nc2cc(CN[C@H]3CC[C@H](O)CC3)cnc2s1)c1ccc2ccccc2n1 [Compound 117]
127 | 500 | COCCN1CCN(Cc2cnc3sc(-c4ccccc4NC(=O)c4cccc(-c5cccc(F)c5F)n4)nc3c2)CC1 [Compound 146]
829 | 226 | O=C(Nc1ccccc1-c1nc2cc(CN3CCCC3)cnc2s1)c1cc(-c2ccccc2)n[nH]1 [Compound 153]

EC1.5 (concentration of test compound that results in 150% activation of SIRT1) [NM] | Emax [%] | SMILES
3020 | 186 | O=C(Nc1ccccc1-c1nc2cc(CN3CCOCC3)cnc2s1)c1cccc2ccccc12 [Compound 97]
150 | 182 | O=C(Nc1ccccc1-c1nc2cc(Cn3ccnc3)cnc2s1)c1ccc2ccccc2n1 [Compound 94]
215 | 500 | Cc1cc(C(=O)Nc2ccccc2-c2nc3cc(CN4CCOCC4)cnc3s2)nc(-c2ccccc2)n1 [Compound 132]
815 | 162 | Cc1nc(-c2cccc(C(=O)Nc3ccccc3-c3nc4cc(CN5CC[C@@H](F)C5)cnc4s3)c2)cs1 [Compound 32]
462 | 378 | O=C(Nc1ccccc1-c1nc2cc(CN3C[C@@H]4C[C@H]3CN4)cnc2s1)c1cccc(-c2cccnc2)c1 [Compound 29]
4410 | 333 | O=C(Nc1ccccc1-c1nc2cc(CN3CCNCC3)cnc2s1)c1nc2ccccc2s1 [Compound 91]
– | 336 | O=C(Nc1ccccc1-c1nc2ccc(CN3CCNCC3)nc2s1)c1cnc2ccccc2n1 [Compound 66]
400 | 241 | Cc1nc(-c2cccc(C(=O)Nc3ccccc3-c3nc4cc(CN5CCOCC5)cnc4s3)c2)cs1 [Compound 39]
674 | 405 | C[C@@H]1CN(Cc2cnc3sc(-c4ccccc4NC(=O)c4cccc(-c5cccnc5)c4)nc3c2)C[C@H](C)N1 [Compound 16]
2970 | 183 | O=C(Nc1ccccc1-c1nc2cc(CN3CCNCC3)cnc2s1)c1ccnc(-c2ccccc2)n1 [Compound 73]
2790 | 285 | O=C(Nc1ccccc1-c1nc2cc(CN3CCNCC3)cnc2s1)c1cccc(-c2nnn[nH]2)c1 [Compound 76]
40 | 500 | COCCN1CCN(Cc2cnc3sc(-c4ccccc4NC(=O)c4cccc(-c5cccc(C#N)c5)n4)nc3c2)CC1 [Compound 148]
1060 | 162 | O=C(Nc1ccccc1-c1nc2cc(CN3CCOCC3)cnc2s1)c1ccc2ccccc2c1 [Compound 96]
4270 | 166 | O=C(Nc1ccccc1-c1nc2cc(CN3CC[C@@H](F)C3)cnc2s1)c1cccc(-n2cnnn2)c1 [Compound 84]
144 | 569 | COCCN1CCN(Cc2cnc3sc(-c4ccccc4NC(=O)c4cccc(-n5cccn5)c4)nc3c2)CC1 [Compound 45]
– | 100 | O=C(Nc1ccccc1-c1nc2cc(CN3CC[C@@H](F)C3)cnc2s1)c1cn2cc(C(F)(F)F)ccc2n1 [Compound 129]
557 | 216 | O=C(Nc1ccccc1-c1nc2cc(CN3CCCC3=O)cnc2s1)c1cccc(-c2ccccc2)c1 [Compound 149]
674 | 443 | O=C(Nc1ccccc1-c1nc2cc(CN3CCOCC3)cnc2s1)c1ccn(-c2ccccc2)n1 [Compound 156]
